Laboratory results: patent US5573772A, “Methods for protecting tissues and organs from ischemic damage” (priority 1994, dated 1996)

System: rabbit heart
Test: Infarct size in isolated rabbit hearts, A3-receptor mediation of preconditioning, Example 3
Procedure: New Zealand white rabbits of either sex, between 1.4-2.4 kg, were anesthetized with intravenous sodium pentobarbital (30 mg/kg). The neck was opened and a tracheotomy was performed. The rabbits were ventilated with 100% oxygen via a positive pressure respirator (MD industries, Mobile, Ala.). Ventilation rate was 30-35 breaths per minute, and tidal volume was approximately 15 ml. A left thoracotomy was performed in the fourth intercostal space and pericardium was opened to expose the heart. A 2-0 silk suture with an RB taper needle was passed around a branch of the left coronary artery, and the end of the silk were threaded through a small vinyl tube to form a snare. The heads were quickly excised and mounted on a Langendorff apparatus and perfused at constant pressure with Krebs buffer containing (in mM) 118.5 NaCl, 4.7 KCl, 1.2 MgSO4, 1.2 K2 PO4, 24.3 NaHCO3, 2.5 CaCl2 and 10 glucose. […] The temperature of the perfusate was maintained at 37° C. The perfusion pressure was kept at 75 mm Hg. Pacing electrodes were placed on the right atrium and all hearts were paced at 200 beats/minute with pulses of 5 volts and 4 msec duration to keep the heart rate constant. A fluid-filled latex balloon connected to a transducer via PE240 tubing was inserted into the left ventricle. Balloon volume was adjusted to set the left ventricular diastolic pressure at 10 mm Hg at the beginning of the experiment. Total coronary artery flow was measured by timed collection of buffer from the chamber into a graduated cylinder. Regional ischemia was effected by pulling the snare tight and clamping the tube with a hemostat. Global ischemia was performed by clamping the inflow tubing of the Langendorff apparatus. Reperfusion was achieved by releasing the restriction. All hearts were allowed to equilibrate for 20 minutes before the experiments were started. Heart rate (HR), coronary flow (CF) and left ventricular developed pressure (LVDP) were recorded at the point just before and at the end of each treatment with the pacing momentarily turned off. […] The hearts were removed from the Langendorff apparatus, weighed and then frozen. The hearts were cut into 2 mm transverse slices. The slices were thawed and incubated in 1% triphenyl tetrazolium chloride (TTC) in pH 7.4 buffer for 20 minutes at 37° C. TTC reacts with NADH and dehydrogenase enzymes and stains all tissue still having them to a deep red color. […] After staining, the area of infarcted tissue (TTC negative tissue) and the risk zone (area lacking fluorescence under ultraviolet light) in each slice were traced. The area of infarct and risk zone were determined by planimetry of the tracing. The volume of infarcted myocardium and myocardium at risk was then calculated by multiplying the planimetered areas by the slice thickness. The methods utilized in this example are identical to those described in Example 1. All hearts received 30 minutes of regional ischemia as described in Example 1. The control group (n=8) hearts received only 30 minutes of ischemia. Preconditioned (PC) hearts (n=10) received 5 minutes of global ischemia and 10 minutes of reperfusion prior to the regional ischemia. Adenosine (ADO) treated hearts (n=6) received 10 μM adenosine for 5 minutes prior to regional ischemia. APNEA treated hearts (n=6) received 65 μM APNEA for 5 minutes prior to regional ischemia. In groups receiving the nonselective adenosine blocker, 8-SPT, the blocker was included in the perfusate for 15 minutes at 100 μM starting 5 minutes before the exposure of ADO (ADO-SPT group, n=6), or APNEA (APNEA-SPT group, n=6 ) or 5 minutes before and after 5 minutes of preconditioning ischemia (PC-SPT group, n=5). […] For the PC-BW group (n=5), the A3-receptor antagonist, BW A1433, [Linden J, et al., Molecular Pharmacology 44:524-532 (1993)], was administered at a dose of 200 nM in the perfusate for 5 minutes before and 5 minutes after PC ischemia.

Nc1ncnc2c1ncn2[C@@H]1O[C@H](CO)[C@@H](O)[C@H]1O [ADO, Adenosine]
Infarct size (of the risk area) (ADO 10 μM, 5 minutes, control 32.2±1.5%, PC 8.8±2.3%): 11.4±2.3%

CCCn1c(=O)c2[nH]c(C3CCCC3)nc2n(CCC)c1=O [DPCPX, 8-cyclopentyl-1,3-dipropylxanthine]
Infarct size (of the risk area) (DPCPX 200 nM + ADO): 14.4±2.8%
Infarct size (of the risk area) (DPCPX 200 nM + APNEA): 8.7±1.7%
Infarct size (of the risk area) (DPCPX 200 nM + PC): 15.6±7.8%

Cn1c(=O)c2[nH]c(-c3ccc(S(=O)(=O)O)cc3)nc2n(C)c1=O [SPT, 8-(p-Sulfophenyl)-theophylline]
Infarct size (of the risk area) (8-SPT 100 μM + ADO): 29.8±3.7%
Infarct size (of the risk area) (8-SPT 100 μM + APNEA): 30.3±3.3%
Infarct size (of the risk area) (8-SPT 100 μM + PC): 33.8±2.7%

Nc1ccc(CCNc2ncnc3c2ncn3[C@@H]2O[C@H](CO)[C@@H](O)[C@H]2O)cc1 [APNEA, N^6-(2-(4-aminophenyl)ethyl) adenosine]
Infarct size (of the risk area) (APNEA 65 μM (so in the source), 5 minutes, control 32.2±1.5%): 12.6±2.2%
